The test system of the assay is IL-12 production of LPS-activated monocytes. In words: Stimulation of human monocytes with lipopolysaccharide to secrete IL-12 (IL-12 sandwich ELISA of culture supernatants). In kind it is cell-based. As to conditions: for action on the IL-12 production of LPS-stimulated monocytes: Tables 2 to 4; for % inhibition of the IL-12 production of the control without inhibitors / IL-12 production / inhibition at 0.05 µg/mL / inhibition at 0.5 µg/mL / inhibition at 5 µg/mL: LPS 20 μg/ml, 24 hours; for inhibition at 0.05 µg/mL / inhibition at 0.5 µg/mL / inhibition at 5 µg/mL: Homo sapiens, Monocyte, read-out: % inhibition of the IL-12 production of the control without inhibitors. On the procedure:
Stimulation of Human Monocytes with Lipopolysaccharide to Secrete IL-12
Human monocytes were isolated from peripheral blood mononuclear cells (PBMC) which had been obtained from heparinized full blood by a Ficoll density gradient centrifugation. To that end, the PBMC were incubated with a monoclonal antibody directed against the monocyte-specific surface molecule CD14 and to which superparamagnetic microbeads (Miltenyi Biotech, Bergisch Gladbach) were coupled. For the positive selection of the labelled monocytes from the PBMC cell mixture, the total cell suspension was applied to a column having a ferromagnetic carrier matrix, and the column was placed in a magnetic field. The cells charged with microbeads were thus bonded to the carrier matrix, while unlabelled cells passed through the column and were discarded. After removing the matrix from the magnetic field, the antibody-charged cells were eluted by flushing the now demagnetised column with buffer. The purity of the resulting CD14-positive monocyte population was approximately from 95 to 98%. The monocytes were incubated for one hour at 37° C. and 5% CO2 in a density of 10^6cells/ml culture medium (RPMI, supplemented with 10% foetal calf serum) with the test substances dissolved in DMSO. 20 μg/ml of LPS from E. coli were then added. After 24 hours, cell-free culture supernatants were collected and tested for their IL-12 content.
The concentration of IL-12 in the cell culture supernatants was determined by sandwich ELISA's using two anti-IL-12 monoclonal antibodies (Biosource Europe, Fleurus, Belgium). A reference standard curve with human IL-12 was included. The detection limit of the IL-12 ELISA was 10 pg/ml.
(In general: ELISA stands for enzyme-linked immunosorbent assay.)

Setting [1] is: test substance 0.005 μg/ml combined with IL-10 5 pg/ml.
Where [2] appears, read: test substance 0.005 μg/ml combined with IL-10 50 pg/ml.
Where [3] appears, read: test substance 0.005 μg/ml, IL-10 0 pg/ml.
The mark [4] stands for this setting: test substance 0.05 μg/ml combined with IL-10 5 pg/ml.
Setting [5] is: test substance 0.05 μg/ml combined with IL-10 50 pg/ml.
The mark [6] stands for this setting: test substance 0.05 μg/ml, IL-10 0 pg/ml.
[7] abbreviates: test substance 0.5 μg/ml combined with IL-10 5 pg/ml.
Where [8] appears, read: test substance 0.5 μg/ml combined with IL-10 50 pg/ml.
The mark [9] stands for this setting: test substance 0.5 μg/ml, IL-10 0 pg/ml.
The mark [10] stands for this setting: test substance 5 μg/ml, IL-10 0 pg/ml.
The mark [11] stands for this setting: test substance 5 μg/ml combined with IL-10 5 pg/ml.
[12] abbreviates: test substance 5 μg/ml combined with IL-10 50 pg/ml.

Where “and” joins values, the source holds several entries; their conditions need not be identical. Identical values can stand only once.

The values that follow come from US20030021763A1, “Method for the treatment and/or prophylaxis of diseases caused by IL-12” (Gruenenthal GmbH., priority 1999, published 2003).

For the compound `CC1(N2C(=O)c3ccccc3C2=O)CCC(=O)NC1=O` (stereo not drawn) [EM 978, α-methyl thalidomide], the “action on the IL-12 production of LPS-stimulated monocytes” value (shortened to “action on the IL-12 production”) is reported as “dose-dependent inhibitory action”. Under setting [1], the “% inhibition of the IL-12 production of the control without inhibitors” value (shortened to “% inhibition … of the control without inhibitors”) is 40% and the IL-12 production was found to be 2922 pg/mL. Besides, under setting [2], the “% inhibition … of the control without inhibitors” value amounted to 53% and the IL-12 production worked out at 2302 pg/mL. Besides, under setting [3], the “% inhibition … of the control without inhibitors” value is 7% and the IL-12 production is 4571 pg/mL. Also, under setting [4], the “% inhibition … of the control without inhibitors” value came out at 61% and the IL-12 production turned out to be 1897 pg/mL. Under setting [5], the “% inhibition … of the control without inhibitors” value is recorded as 68% and the IL-12 production was found to be 1555 pg/mL. Further, under setting [6], the “% inhibition … of the control without inhibitors” value worked out at 35% and the IL-12 production amounted to 3161 pg/mL. For the same compound, under setting [7], the “% inhibition … of the control without inhibitors” value is listed as 94% and the IL-12 production came out at 272 pg/mL. Moreover, under setting [8], the “% inhibition … of the control without inhibitors” value stood at 96% and the IL-12 production was found to be 191 pg/mL. Besides, under setting [9], the “% inhibition … of the control without inhibitors” value was 91% and the IL-12 production was found to be 439 pg/mL. Where the note is “versus thalidomide or EM 12”, the “concentration lower than in the case of thalidomide or EM 12 to achieve the same effects” value is given as 10 times lower.
Consider `O=C1CCC(N2C(=O)c3ccccc3C2=O)C(=O)N1` (centres unmarked) [Thalidomide, 2-(2,6-dioxo-piperidin-3-yl)-isoindole-1,3-dione, reference compound], for which the “action on the IL-12 production” value is “dose-dependent inhibitory action”. For the same compound, under setting [6], the inhibition (commonly the change of the read-out against control, counted positive when it falls) at 0.05 µg/mL stood at 45% and the IL-12 production came to 3369 pg/mL. Besides, under setting [9], the inhibition at 0.5 µg/mL is 67% and the IL-12 production turned out to be 2037 pg/mL. Under setting [10], the inhibition at 5 µg/mL came out at 76% and the IL-12 production amounted to 1481 pg/mL. Under setting [4], the “% inhibition … of the control without inhibitors” value is given as 68% and the IL-12 production came to 1958 pg/mL. Under setting [5], the “% inhibition … of the control without inhibitors” value stood at 87% and the IL-12 production was determined as 809 pg/mL. Under setting [7], the “% inhibition … of the control without inhibitors” value came to 81% and the IL-12 production is 1147 pg/mL. For the same compound, under setting [8], the “% inhibition … of the control without inhibitors” value is reported as 90% and the IL-12 production was determined as 618 pg/mL. In addition, under setting [11], the “% inhibition … of the control without inhibitors” value came out at 83% and the IL-12 production was found to be 1057 pg/mL. Also, under setting [12], the “% inhibition … of the control without inhibitors” value is given as 93% and the IL-12 production is 447 pg/mL.
In the case of `O=C1CCC(N2Cc3ccccc3C2=O)C(=O)N1` (centres unmarked) [EM 12, 3-(1-oxo-1,3-dihydro-isoindol-2-yl)-piperidine-2,6-dione], the “action on the IL-12 production” value was “dose-dependent inhibitory action”. Further, under setting [6], the inhibition at 0.05 µg/mL is 47% and the IL-12 production was 3478 pg/mL. Under setting [9], the inhibition at 0.5 µg/mL stood at 68% and the IL-12 production turned out to be 2098 pg/mL. In addition, under setting [10], the inhibition at 5 µg/mL worked out at 66% and the IL-12 production was 2220 pg/mL. Under setting [4], the “% inhibition … of the control without inhibitors” value stood at 55% and the IL-12 production is 2944 pg/mL. Under setting [5], the “% inhibition … of the control without inhibitors” value was found to be 91% and the IL-12 production stood at 589 pg/mL. For the same compound, under setting [7], the “% inhibition … of the control without inhibitors” value is 78% and the IL-12 production came out at 1462 pg/mL. Under setting [8], the “% inhibition … of the control without inhibitors” value stood at 90% and the IL-12 production stood at 649 pg/mL. Further, under setting [11], the “% inhibition … of the control without inhibitors” value was determined as 81% and the IL-12 production is 1271 pg/mL. Besides, under setting [12], the “% inhibition … of the control without inhibitors” value came out at 92% and the IL-12 production was determined as 546 pg/mL.
For “IL-10: anti-inflammatory cytokine originally described as cytokine synthesis inhibitory factor”, the EC50 (in general, the midpoint of the concentration-response curve) was found to be 0.05 ng/mL and the “action on the IL-12 production” value is given as “dose-dependent inhibitory action”. Further, under “IL-10 5 pg/ml alone (thalidomide compound 0 μg/ml)”, the IL-12 production was 5637 pg/mL and 4393 pg/mL and 4581 pg/mL. Moreover, the “% inhibition … of the control without inhibitors” value (IL-10 50 pg/ml alone (thalidomide compound 0 μg/ml)) is 58% and 47% and 81%.
